Reference: patent US6420422B1, “Ocular hypotensive agents” (Sucampo Pharmaceuticals, Inc., priority 1987, dated 2002)

Columns and labels:
[1] = prior art statement; cited from earlier work
[2] = tested on: Japanese White male rabbits; test: Intraocular pressure reduction and conjunctival hyperemia (Example 5, Table 1 (1)-(6)); format: in vivo; parameters: key: −: scarcely observed; ±: extremely weak hyperemia; +: slight hyperemia; ++: pronounced hyperemia; +++: severe hyperemia; +++*: *: Lid closure and lacrimation were observed; conditions: extent of conjunctival hyperemia, topical
Experimental: (§1) For the purpose of tonometry, Japanese White male rabbits (2.5-3.0 Kg) were fixed on braces. After topical anesthetization with 0.4% oxybuprocaine hydrochloride, intraocular pressure was measured using a pheumatic applanation tonometer (manufactured by Japan Alcon). After the topical application of 50 μl of the suspensions of the test drugs in a physiological saline to one eye, the intraocular pressure was measured and the intraocular pressure reduction (%) caused by each test drug was calculated. At the same time, the extent of conjunctival hyperemia was observed.

[3] = tested on: Japanese White male rabbits; test: as above; format: in vivo; conditions: intraocular pressure reduction (%), topical
Experimental: as §1

[4] = tested on: Japanese White male rabbits; test: as above; format: in vivo; parameters: key: −: none; +−: barely visible hyperemia; +: slight hyperemia; ++: moderate hyperemia; +++: severe hyperemia; +++*: *: lid-closing and severe hyperemia are observed; conditions: extent of conjunctival hyperemia; topical, dose 100 μg/eye
Experimental: as §1

[5] = tested on: Japanese White male rabbits; test: Change in intraocular pressure with time after application (Example 4, FIG. 1); format: in vivo; conditions: topical 25 μg/eye, every 1 hr until 6 hr, 6 rabbits per group
Experimental: FIG. 1 is a graph showing change in intraocular pressure with time after application of prostaglandins E2 to rabbits, wherein applied drugs were as follows:
For the purpose of tonometry, Japanese White male rabbits (2.5-3.0 Kg) were fixed on braces, and after topical anesthetization with 0.4% oxybuprocaine hydrochloride, intraocular pressure was measured using a pheumatic applanation tonometer (manufactured by Japan Alcon K.K.).
The test drugs were suspended in a physiological saline. A 50 μl aliquot […] of the suspension (25 μg/eye of the test drug) was topically applied to one eye. The contralateral control eye received physiological saline. Intraocular pressure was measured at every 1 hr, until 6 hr, after topical application. In this experiment, 6 rabbits per group were used, and the mean values of intraocular pressure of the treated eye at each time were calculated.

For `CCCCC[C@H](O)/C=C/[C@@H]1[C@@H](C/C=C\CCCC(=O)O)[C@@H](O)C[C@H]1O` [PGF2], the “Ocular hypotensive activity (in words)” value [1] is given as “high ocular hypotensive activity”.
For `CCCCCCCC(=O)CCC1C=CC(=O)C1C/C=C\CCCC(=O)OC(C)C` (stereo not shown) [Test Drug (8), 13,14-dihydro-15-keto-20-ethyl-PGA2 isopropyl ester], the Hyperemia ([2]; dose 50 μg/eye) was “−” and the “Percent change of IOP” value ([3]; dose 50 μg/eye) was 27%.
In the case of `CCCCCC(=O)CCC1C=CC(=O)C1C/C=C\CCCC(=O)OCC` (stereo not shown) [Test Drug (3), 13,14-dihydro-15-keto-PGA2 ethyl ester], the “Percent change of IOP” value ([3]; dose 100 μg/eye) was 24% and the Hyperemia [4] was “+”.
For `CCCCC(F)C(=O)CCC1C(=O)CC(O)C1C/C=C\CCCC(=O)OC` (stereo not shown) [Test Drug (35), 13,14-dihydro-15-keto-16R,S-fluoro-PGD2 methyl ester], the “Percent change of IOP” value ([3]; dose 100 μg/eye) was 13% and the Hyperemia [4] was “+”.
For `CCCCCC(=O)/C=C/[C@@H]1[C@@H](C/C=C\CCCC(=O)O)[C@@H](O)C[C@H]1O` [15-keto-PGF2], the “Ocular hypotensive activity (in words)” value [1] is listed as “a very little”.
For `CCCCCC(=O)CCC1C(=O)CC(O)C1C/C=C\CCCC(=O)OCC` (stereo not shown) [Test Drug (30), 13,14-dihydro-15-keto-PGD2 ethyl ester], the Hyperemia ([2]; dose 250 μg/eye) was “±” and the “Percent change of IOP” value ([3]; dose 250 μg/eye) was 20%.
In the case of `CCCCCC(=O)CC[C@H]1[C@H](O)CC(=O)[C@@H]1C/C=C\CCCC(=O)O` [Test Drug (56), 13,14-dihydro-15-keto-PGE2], the “Intraocular pressure response (in words)” value [5] was “ocular hypotensive potency without transient ocular hypertensive response”.
In the case of `CCCCCCCCC(=O)CCC1C(O)CC(O)C1C/C=C\CCCC(=O)OC` (stereo not drawn) [Test Drug (90), 13,14-dihydro-15-keto-20-n-propyl-PGF2^α methyl ester], the Hyperemia ([2]; dose 250 μg/eye) was “±” and the “Percent change of IOP” value ([3]; dose 250 μg/eye) was 25%.
With `CCCCCC(=O)CCC1C(=O)CC(O)C1CC#CCCCC(=O)OC` (stereo not drawn) [Test Drug (34), 13,14-dihydro-15-keto-5,6-dehydro-9β-PGD2 methyl ester] the Hyperemia ([2]; dose 250 μg/eye) was “±” and the “Percent change of IOP” value ([3]; dose 250 μg/eye) was 23%.
With `CCCCC[C@H](O)/C=C/[C@H]1[C@H](O)CC(=O)[C@@H]1C/C=C\CCCC(=O)O` [Test Drug (73), PGE2, reference compound] the “Intraocular pressure response (in words)” value [5] was “transient ocular hypertensive response”.
